Source: ChEMBL document CHEMBL1124332, “2-(Alkylamino)tetralin derivatives: interaction with 5-HT1A serotonin binding sites” (J Med Chem, 1989)

Tests used:
[1] = molecular target: T1, 5-hydroxytryptamine receptor 1A (Rattus norvegicus) (UniProt P19327); experiment: Binding affinity at [3H]8-OH-DPAT-Labeled 5-hydroxytryptamine 1A receptor sites in rat brain hippocampal membranes expressed as Hill values; format: cell membranes
T1 sequence (whole entry): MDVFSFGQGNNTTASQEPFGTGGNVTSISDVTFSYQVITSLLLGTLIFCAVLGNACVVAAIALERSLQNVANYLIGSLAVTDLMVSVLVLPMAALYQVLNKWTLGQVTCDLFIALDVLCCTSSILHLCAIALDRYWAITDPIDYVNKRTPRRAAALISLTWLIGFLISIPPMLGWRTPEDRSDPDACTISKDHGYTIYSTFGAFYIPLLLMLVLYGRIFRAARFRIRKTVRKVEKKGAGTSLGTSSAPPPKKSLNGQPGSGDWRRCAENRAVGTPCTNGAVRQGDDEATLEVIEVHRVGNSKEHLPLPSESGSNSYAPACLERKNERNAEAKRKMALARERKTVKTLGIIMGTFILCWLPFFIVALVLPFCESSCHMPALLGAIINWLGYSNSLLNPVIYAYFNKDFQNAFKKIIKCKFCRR

[2] = molecular target: T2, 5-hydroxytryptamine receptor 1A (Rattus norvegicus, UniProt P19327); experiment: Binding affinity at [3H]8-OH-DPAT-Labeled 5-hydroxytryptamine 1A receptor sites in rat brain hippocampal membranes; format: cell membranes
T2 sequence (P19327 whole entry): T1 sequence (whole entry)

| SMILES | Hill coefficient [1] | Ki [2] [nM] |
| --- | --- | --- |
| COc1cccc2c1CC(NCCCCc1ccccc1)CC2 (stereo not drawn) | 0.92 | 5.6 |
| Oc1cccc2c1CC(NCCCc1ccccc1)CC2 (stereo not drawn) | 0.87 | 1.9 |
| COc1cccc2c1CC(N(C)CCc1ccccc1)CC2 (stereo not drawn) | 0.9 | 7.9 |
| c1ccc(CCCNC2CCc3ccccc3C2)cc1 (stereo not drawn) | 1.06 | 13 |
| COc1cccc2c1CC(N(C)Cc1ccccc1)CC2 (stereo not drawn) | 0.91 | 78 |
| c1ccc(CCCNC2CCc3cccc(OCc4ccccc4)c3C2)cc1 (stereo not drawn) | 0.91 | 10 |
| CCCNC1CCc2cccc(OC)c2C1 (stereo not drawn) | 0.8 | 2.3 |
| COc1cccc2c1CC(NCCc1ccccc1)CC2 (stereo not drawn) | 0.85 | 44 |
| COc1cccc2c1CC(N(C)CCCc1ccccc1)CC2 (stereo not drawn) | 0.94 | 2 |
| COc1cccc2c1CC(N)CC2 (stereo not drawn) | 0.77 | 53 |
| CCCN(CCC)C1CCc2cccc(OC)c2C1 (stereo not drawn) | 0.78 |  |
| COc1cccc2c1CC(NCCCc1ccccc1)CC2 (stereo not drawn) | 0.83 | 2.5 |
| CCCNC1CCc2ccccc2C1 (stereo not drawn) | 0.74 | 19 |
| CCCN(C)C1CCc2cccc(OC)c2C1 (stereo not drawn) | 0.91 | 2.1 |
| CCCN(CCC)C1CCc2cccc(O)c2C1 (stereo not drawn) | 1.01 |  |
